{
  "source": "patent US12685726B2",
  "about": "“Sulfoximines as inhibitors of NaV1.8” (Gruenenthal GmbH, priority 2022, dated 2026)",
  "data": [
    {"target": "T1, human NaV 1.8 (Homo sapiens, UniProt Q9Y5Y9)", "T1 construct": "expressed in transfected cells; host or cells: HEK (recombinant cell line)", "T1 sequence (Q9Y5Y9 whole entry)": "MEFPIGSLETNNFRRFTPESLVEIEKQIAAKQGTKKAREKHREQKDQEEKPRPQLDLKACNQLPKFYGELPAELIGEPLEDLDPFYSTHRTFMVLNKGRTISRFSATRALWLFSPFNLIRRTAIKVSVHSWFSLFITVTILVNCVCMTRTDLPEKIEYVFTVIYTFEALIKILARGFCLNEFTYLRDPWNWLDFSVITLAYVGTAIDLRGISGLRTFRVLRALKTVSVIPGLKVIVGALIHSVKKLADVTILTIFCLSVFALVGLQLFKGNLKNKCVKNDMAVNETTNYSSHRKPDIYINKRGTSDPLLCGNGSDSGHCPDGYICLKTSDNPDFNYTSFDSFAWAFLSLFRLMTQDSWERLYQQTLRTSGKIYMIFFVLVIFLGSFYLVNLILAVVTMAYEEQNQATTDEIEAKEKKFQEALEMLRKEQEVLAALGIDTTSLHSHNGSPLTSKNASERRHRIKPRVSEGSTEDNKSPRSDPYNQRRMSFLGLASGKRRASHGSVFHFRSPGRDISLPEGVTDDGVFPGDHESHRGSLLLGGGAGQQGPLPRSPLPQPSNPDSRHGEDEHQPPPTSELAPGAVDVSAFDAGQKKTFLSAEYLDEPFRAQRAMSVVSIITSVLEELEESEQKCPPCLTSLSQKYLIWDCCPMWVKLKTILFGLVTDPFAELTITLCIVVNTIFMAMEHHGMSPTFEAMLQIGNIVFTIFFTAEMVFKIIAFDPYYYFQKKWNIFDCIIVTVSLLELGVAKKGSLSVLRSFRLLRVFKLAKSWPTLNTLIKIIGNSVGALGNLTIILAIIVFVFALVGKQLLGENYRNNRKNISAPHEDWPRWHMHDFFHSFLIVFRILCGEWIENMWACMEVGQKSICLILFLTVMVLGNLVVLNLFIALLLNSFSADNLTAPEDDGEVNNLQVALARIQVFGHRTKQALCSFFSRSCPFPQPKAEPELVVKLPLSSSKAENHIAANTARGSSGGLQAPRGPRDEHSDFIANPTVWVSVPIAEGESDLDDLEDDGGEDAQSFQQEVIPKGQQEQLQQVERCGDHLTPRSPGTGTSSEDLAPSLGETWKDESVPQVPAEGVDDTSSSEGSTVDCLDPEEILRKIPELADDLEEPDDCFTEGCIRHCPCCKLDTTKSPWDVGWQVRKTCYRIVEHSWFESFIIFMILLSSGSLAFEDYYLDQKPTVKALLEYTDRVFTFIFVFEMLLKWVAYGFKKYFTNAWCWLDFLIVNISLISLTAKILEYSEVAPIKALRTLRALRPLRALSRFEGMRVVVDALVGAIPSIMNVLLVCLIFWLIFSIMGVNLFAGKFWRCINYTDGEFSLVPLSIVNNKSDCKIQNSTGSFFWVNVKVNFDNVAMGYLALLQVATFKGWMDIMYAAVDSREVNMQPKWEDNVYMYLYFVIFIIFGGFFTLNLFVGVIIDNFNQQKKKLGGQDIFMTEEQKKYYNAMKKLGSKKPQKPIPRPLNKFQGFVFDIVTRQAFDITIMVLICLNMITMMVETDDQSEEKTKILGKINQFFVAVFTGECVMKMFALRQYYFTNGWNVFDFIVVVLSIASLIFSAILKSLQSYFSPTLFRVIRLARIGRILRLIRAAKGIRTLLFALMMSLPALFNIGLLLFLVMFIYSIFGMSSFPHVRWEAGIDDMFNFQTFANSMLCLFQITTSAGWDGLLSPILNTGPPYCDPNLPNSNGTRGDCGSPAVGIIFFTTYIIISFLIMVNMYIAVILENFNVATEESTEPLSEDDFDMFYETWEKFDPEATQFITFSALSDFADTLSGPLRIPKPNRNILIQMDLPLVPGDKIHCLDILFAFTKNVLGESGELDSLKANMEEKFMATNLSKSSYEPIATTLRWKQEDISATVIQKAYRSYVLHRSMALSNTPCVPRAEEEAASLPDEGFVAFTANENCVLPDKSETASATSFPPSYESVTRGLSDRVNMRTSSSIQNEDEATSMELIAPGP", "test": "Automated whole-cell patch clamp (Qube384) voltage-clamp recordings of sodium currents in HEK-NaV1.8 cell line", "format": "cell-based", "conditions": "read-out: Potency category (human NaV 1.8 IC50)", "summary_of_the_method": "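HEK cells expressing NaV1.8 with b3, whole-cell automated voltage clamp at room temperature or 19° C.; CsF-based internal, pH 7.4 external. State-dependent (−120 mV, V1/2 4 s, −10 mV test pulses) and 10/20 Hz 40-pulse protocols; ~12 min compound, vehicle-corrected, IC50 by 4-parameter logistic fit.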", "units": {"IC50": "nM"}, "values": [
      {"smiles": "C[S@](=N)(=O)c1cc(NC(=O)c2c(C(F)(F)F)c(C3CC3)nn2C[C@]2(C)C[C@@H](C(F)(F)F)C2)ccn1", "note": "(single isomer, unassigned) [Example 86d, 3-cyclopropyl-1-(((cis)-1-methyl-3-(trifluoromethyl)cyclobutyl)methyl)-N-(2-(S-methylsulfonimidoyl)pyridin-4-yl)-4-(trifluoromethyl)-1H-pyrazole-5-carboxamide]", "IC50": "≤ 100"},
      {"smiles": "CS(=N)(=O)c1cc(NC(=O)c2c(C(F)(F)F)c(C3CC3)nn2CC2CC3(C2)CC(F)(F)C3)ccn1", "note": "(single isomer, unassigned) [Example 27a, 3-cyclopropyl-1-((6,6-difluorospiro[3.3]heptan-2-yl)methyl)-N-(2-(S-methylsulfonimidoyl)pyridin-4-yl)-4-(trifluoromethyl)-1H-pyrazole-5-carboxamide]", "IC50": "≤ 100"},
      {"smiles": "CC1(Cn2nc(C3CC4(CC4)C3)c(C(F)(F)F)c2C(=O)Nc2ccnc(S(C)(=N)=O)c2)CC(F)(F)C1", "note": "(single isomer, unassigned) [Example 61a, 1-((3,3-Difluoro-1-methylcyclobutyl)methyl)-N-(2-(S-methylsulfonimidoyl)pyridin-4-yl)-3-(spiro[2.3]hexan-5-yl)-4-(trifluoromethyl)-1H-pyrazole-5-carboxamide]", "IC50": "≤ 100"},
      {"smiles": "CC1(Cn2nc(C34CC(F)(C3)C4)c(C(F)(F)F)c2C(=O)Nc2ccc(F)c(S(C)(=N)=O)c2)CC(F)(F)C1", "note": "(single isomer, unassigned) [Example 141b, 1-((3,3-Difluoro-1-methylcyclobutyl)methyl)-N-(4-fluoro-3-(S-methylsulfonimidoyl)phenyl)-3-(3-fluorobicyclo[1.1.1]pentan-1-yl)-4-(trifluoromethyl)-1H-pyrazole-5-carboxamide]", "IC50": "≤ 100"},
      {"smiles": "C[C@@H]1C[C@H]1c1nn(CC2(C)CC(F)(F)C2)c(C(=O)Nc2ccnc([S@](C)(=N)=O)c2)c1C(F)(F)F", "note": "(single isomer, unassigned) [Example 65c, 1-((3,3-Difluoro-1-methylcyclobutyl)methyl)-3-((trans)-2-methylcyclopropyl)-N-(2-(S-methylsulfonimidoyl)pyridin-4-yl)-4-(trifluoromethyl)-1H-pyrazole-5-carboxamide]", "IC50": "≤ 100"},
      {"smiles": "CS(=N)(=O)c1cc(NC(=O)c2c(C(F)(F)F)c(C3CC3)nn2CC23CC(CC2(F)F)C3)ccn1", "note": "(single isomer, unassigned) [Example 103b, 3-cyclopropyl-1-((2,2-difluorobicyclo[2.1.1]hexan-1-yl)methyl)-N-(2-(S-methylsulfonimidoyl)pyridin-4-yl)-4-(trifluoromethyl)-1H-pyrazole-5-carboxamide]", "IC50": "≤ 100"},
      {"smiles": "CC1(Cn2nc(C(C)(C)F)c(C(F)(F)F)c2C(=O)Nc2ccnc(S(C)(=N)=O)c2)CC(F)(F)C1", "note": "(single isomer, unassigned) [Example 148b, 1-((3,3-Difluoro-1-methylcyclobutyl)methyl)-3-(2-fluoropropan-2-yl)-N-(2-(S-methylsulfonimidoyl)pyridin-4-yl)-4-(trifluoromethyl)-1H-pyrazole-5-carboxamide]", "IC50": "≤ 100"},
      {"smiles": "CS(=N)(=O)c1cc(NC(=O)c2c(C(F)(F)F)c(C3CC3)nn2C[C@H]2CCC(F)(F)C2)ccn1", "note": "(single isomer, unassigned) [Example 17a]", "IC50": "≤ 100"},
      {"smiles": "CC1(Cn2nc(C3(F)CC3)c(C(F)(F)F)c2C(=O)Nc2ccnc(S(C)(=N)=O)c2)CC(F)(F)C1", "note": "(single isomer, unassigned) [Example 70a, 1-((3,3-Difluoro-1-methylcyclobutyl)methyl)-3-(1-fluorocyclopropyl)-N-(2-(S-methylsulfonimidoyl)pyridin-4-yl)-4-(trifluoromethyl)-1H-pyrazole-5-carboxamide]", "IC50": "≤ 100"},
      {"smiles": "Cc1c(C(C)(F)F)nn(CC2CCC(F)(F)CC2)c1C(=O)Nc1ccnc(S(C)(=N)=O)c1", "note": "(single isomer, unassigned) [Example 9a, 1-((4,4-difluorocyclohexyl)methyl)-3-(1,1-difluoroethyl)-4-methyl-N-(2-(S-methylsulfonimidoyl)pyridin-4-yl)-1H-pyrazole-5-carboxamide]", "IC50": "≤ 100"},
      {"smiles": "CC(=O)N1CC2(CCC2Cn2nc(C3CC3)c(C(F)(F)F)c2C(=O)Nc2ccnc(S(C)(=N)=O)c2)C1", "note": "(single isomer, unassigned) [Example 140a, 1-((2-Acetyl-2-azaspiro[3.3]heptan-5-yl)methyl)-3-cyclopropyl-N-(2-(S-methylsulfonimidoyl)pyridin-4-yl)-4-(trifluoromethyl)-1H-pyrazole-5-carboxamide]", "IC50": "100 to 1000"},
      {"smiles": "CC1(Cn2nc(C(C)(C)C)c(C(F)(F)F)c2C(=O)Nc2ccnc(S(C)(=N)=O)c2)CC(F)(F)C1", "note": "(single isomer, unassigned) [Example 143b, 3-(Tert-butyl)-1-((3,3-difluoro-1-methylcyclobutyl)methyl)-N-(2-(S-methylsulfonimidoyl)pyridin-4-yl)-4-(trifluoromethyl)-1H-pyrazole-5-carboxamide]", "IC50": "≤ 100"},
      {"smiles": "CS(=N)(=O)c1cc(NC(=O)c2c(C(F)(F)F)c(C3CC3)nn2CC2(F)CC3(CCC3)C2)ccn1", "note": "(single isomer, unassigned) [Example 21a, 3-cyclopropyl-1-((2-fluorospiro[3.3]heptan-2-yl)methyl)-N-(2-(S-methylsulfonimidoyl)pyridin-4-yl)-4-(trifluoromethyl)-1H-pyrazole-5-carboxamide]", "IC50": "≤ 100"},
      {"smiles": "COC1(c2nn(CC3(C)CC(F)(F)C3)c(C(=O)Nc3ccnc(S(C)(=N)=O)c3)c2C(F)(F)F)CC1", "note": "(single isomer, unassigned) [Example 71b, 1-((3,3-difluoro-1-methylcyclobutyl)methyl)-3-(1-methoxycyclopropyl)-N-(2-(S-methylsulfonimidoyl)pyridin-4-yl)-4-(trifluoromethyl)-1H-pyrazole-5-carboxamide]", "IC50": "≤ 100"},
      {"smiles": "CC1(Cn2nc(C3(C(F)(F)F)CC3)c(C(F)(F)F)c2C(=O)Nc2ccnc(S(C)(=N)=O)c2)CC(F)(F)C1", "note": "(single isomer, unassigned) [Example 144a, 1-((3,3-Difluoro-1-methylcyclobutyl)methyl)-N-(2-(S-methylsulfonimidoyl)pyridin-4-yl)-4-(trifluoromethyl)-3-(1-(trifluoromethyl)cyclopropyl)-1H-pyrazole-5-carboxamide]", "IC50": "≤ 100"},
      {"smiles": "CC1(Cn2nc(C3(F)CC3)c(C(F)(F)F)c2C(=O)Nc2cccc(S(C)(=O)=NC(=O)C3COC3)c2)CC(F)(F)C1", "note": "(single isomer, unassigned) [Example 150b, 1-((3,3-Difluoro-1-methylcyclobutyl)methyl)-3-(1-fluorocyclopropyl)-N-(3-(S-methyl-N-(oxetane-3-carbonyl)sulfonimidoyl)phenyl)-4-(trifluoromethyl)-1H-pyrazole-5-carboxamide]", "IC50": "≤ 100"},
      {"smiles": "CC1(Cn2nc(C3(F)CC3)c(C(F)F)c2C(=O)Nc2ccc(F)c(S(C)(=N)=O)c2)CC(F)(F)C1", "note": "(single isomer, unassigned) [Example 133b, 1-((3,3-Difluoro-1-methylcyclobutyl)methyl)-4-(difluoromethyl)-N-(4-fluoro-3-(S-methylsulfonimidoyl)phenyl)-3-(1-fluorocyclopropyl)-1H-pyrazole-5-carboxamide]", "IC50": "≤ 100"},
      {"smiles": "CC1(Cn2nc(C3(C)CC3)c(C(F)(F)F)c2C(=O)Nc2ccnc(S(C)(=N)=O)c2)CC(F)(F)C1", "note": "(single isomer, unassigned) [Example 69b, 1-((3,3-difluoro-1-methylcyclobutyl)methyl)-3-(1-methylcyclopropyl)-N-(2-(S-methylsulfonimidoyl)pyridin-4-yl)-4-(trifluoromethyl)-1H-pyrazole-5-carboxamide]", "IC50": "≤ 100"},
      {"smiles": "C[S@](=N)(=O)c1cc(NC(=O)c2c(C(F)(F)F)c(C3CC3)nn2C[C@H]2CC23CC3)ccn1", "note": "(single isomer, unassigned) [Example 78d, 3-cyclopropyl-N-(2-(S-methylsulfonimidoyl)pyridin-4-yl)-1-(spiro[2.2]pentan-1-ylmethyl)-4-(trifluoromethyl)-1H-pyrazole-5-carboxamide]", "IC50": "≤ 100"},
      {"smiles": "CC1(Cn2nc(C3(F)CC3)c(C(F)F)c2C(=O)Nc2cccc(S(C)(=N)=O)c2)CC(F)(F)C1", "note": "(single isomer, unassigned) [Example 135b, 1-((3,3-Difluoro-1-methylcyclobutyl)methyl)-4-(difluoromethyl)-3-(1-fluorocyclopropyl)-N-(3-(S-methylsulfonimidoyl)phenyl)-1H-pyrazole-5-carboxamide]", "IC50": "≤ 100"},
      {"smiles": "CC1(Cn2nc(C3CC3)c(C(F)(F)F)c2C(=O)Nc2ccnc(S(C)(=N)=O)c2)CC(F)(F)C1", "note": "(single isomer, unassigned) [Example 1b, 3-cyclopropyl-1-((3,3-difluoro-1-methylcyclobutyl)methyl)-N-(2-(S-methylsulfonimidoyl)pyridin-4-yl)-4-(trifluoromethyl)-1H-pyrazole-5-carboxamide]", "IC50": "≤ 100"},
      {"smiles": "CS(=N)(=O)c1cc(NC(=O)c2c(C(F)(F)F)c(C3CC3)nn2CC23CC(C(F)(F)F)(C2)C3)ccn1", "note": "(single isomer, unassigned) [Example 23a, 3-cyclopropyl-N-(2-(S-methylsulfonimidoyl)pyridin-4-yl)-4-(trifluoromethyl)-1-((3-(trifluoromethyl)bicyclo[1.1.1]pentan-1-yl)methyl)-1H-pyrazole-5-carboxamide]", "IC50": "≤ 100"},
      {"smiles": "C[S@@](=N)(=O)c1cc(NC(=O)c2c(C(F)(F)F)c(C3CC3)nn2C[C@]2(C)C[C@@H](C(F)(F)F)C2)ccn1", "note": "(single isomer, unassigned) [Example 86c, 3-cyclopropyl-1-(((cis)-1-methyl-3-(trifluoromethyl)cyclobutyl)methyl)-N-(2-(S-methylsulfonimidoyl)pyridin-4-yl)-4-(trifluoromethyl)-1H-pyrazole-5-carboxamide]", "IC50": "≤ 100"}
    ]}
  ]
}
